Test results from ChEMBL document CHEMBL1201862, “PubChem BioAssay data set” (2004).
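Tested at 5 concentrations; 48 h exposure; 96-well plates; endpoints linearly interpolated, else capped at highest concentration. Abbreviation: GI50, concentration required for 50% inhibition of growth.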 Calls of active or inactive are those of the source. No stated cut-off is given here; in the data, active = GI50 up to about 1.1 µM and inactive = higher.

Legend:
Test in all cases: DTP human tumour cell line panel, 48 h
CCRF-CEM = test system: CCRF-CEM
COLO 205 = test system: COLO 205
EKVX = test system: EKVX
HCT-116 = test system: HCT-116
HT-29 = test system: HT-29
IGROV-1 = test system: IGROV-1
K562 = test system: K562
LOX IMVI = test system: LOX IMVI
MDA-N = test system: MDA-N
MOLT-4 = test system: MOLT-4
Malme-3M = test system: Malme-3M
NCI/ADR-RES = test system: NCI/ADR-RES
OVCAR-3 = test system: OVCAR-3
OVCAR-4 = test system: OVCAR-4
RPMI-8226 = test system: RPMI-8226
SF-268 = test system: SF-268
SF-295 = test system: SF-295
SK-OV-3 = test system: SK-OV-3
SNB-75 = test system: SNB-75
UACC-257 = test system: UACC-257

Compound | GI50 (CCRF-CEM) | GI50 (COLO 205) | GI50 (EKVX) | GI50 (HCT-116) | GI50 (HT-29) | GI50 (IGROV-1) | GI50 (K562) | GI50 (LOX IMVI) | GI50 (MDA-N) | GI50 (MOLT-4) | GI50 (Malme-3M) | GI50 (NCI/ADR-RES) | GI50 (OVCAR-3) | GI50 (OVCAR-4) | GI50 (RPMI-8226) | GI50 (SF-268) | GI50 (SF-295) | GI50 (SK-OV-3) | GI50 (SNB-75) | GI50 (UACC-257)
CCCCCCCN(CCCCCCC)CC(O)c1cc2ccccc2c2cc(Br)ccc12 (stereo not given) | 40.9 µM (inactive) | 24.8 µM (inactive) | 25.8 µM (inactive) | 21.1 µM (inactive) | 67 µM (inactive) | 62.1 µM (inactive) | 30.7 µM (inactive) | 14.2 µM (inactive) | 28.5 µM (inactive) | 35.1 µM (inactive) | 19.5 µM (inactive) | > 100 µM (inactive) | 17.9 µM (inactive) | > 100 µM (inactive) | 24.9 µM (inactive) | 19 µM (inactive) | > 10 µM (inactive) | > 100 µM (inactive) | 34.9 µM (inactive) | 40.4 µM (inactive)
CC1=C(CCC(C)CO)O[C@H]2C[C@H]3[C@@H]4CC[C@H]5C[C@@H](O)CC[C@]5(C)[C@H]4CC(=O)[C@]3(C)[C@@H]12 (stereo not given in full) | 4.89 µM (inactive) | 8.97 µM (inactive) | 29.9 µM (inactive) | 17.5 µM (inactive) | 13.7 µM (inactive) | 12.6 µM (inactive) | 10.4 µM (inactive) | 12.7 µM (inactive) | 15.6 µM (inactive) | 3.61 µM (inactive) | 19.1 µM (inactive) | 9.48 µM (inactive) | 4.94 µM (inactive) | 25.2 µM (inactive) | 2.4 µM (inactive) | 19.1 µM (inactive) | 1.27 µM (inactive) | 0.442 µM (active) | 20.6 µM (inactive) | 14.8 µM (inactive)
O=C(O)c1cscc1Cc1cccs1 | > 100 µM (inactive) | > 100 µM (inactive) | > 100 µM (inactive) | > 100 µM (inactive) | > 100 µM (inactive) | > 100 µM (inactive) | > 100 µM (inactive) | > 100 µM (inactive) | > 100 µM (inactive) | > 100 µM (inactive) | > 100 µM (inactive) | > 100 µM (inactive) | > 100 µM (inactive) | > 100 µM (inactive) | > 100 µM (inactive) | > 100 µM (inactive) | > 100 µM (inactive) | > 100 µM (inactive) | 57.8 µM (inactive) | > 100 µM (inactive)
NC(=S)Nc1nc(=S)[nH]c2c1SC1=N/C(=C\c3ccco3)C(=O)N12 | 38.2 µM (inactive) | > 100 µM (inactive) | 59 µM (inactive) | > 96.2 µM (inactive) | > 60.4 µM (inactive) | 45.2 µM (inactive) | 28.4 µM (inactive) | 40.6 µM (inactive) | > 100 µM (inactive) | 44.1 µM (inactive) | 44.7 µM (inactive) | > 100 µM (inactive) | > 89.7 µM (inactive) | 61.8 µM (inactive) | 29.3 µM (inactive) | > 100 µM (inactive) | > 100 µM (inactive) | > 100 µM (inactive) | > 57.1 µM (inactive) | > 100 µM (inactive)
Clc1ccc(C(c2ccc(Cl)cc2)N2CCNCC2)cc1 | 2.34 µM (inactive) | 1.96 µM (inactive) | 3.02 µM (inactive) | 1.73 µM (inactive) | 2.03 µM (inactive) | 1.77 µM (inactive) | 1.58 µM (inactive) | 1.92 µM (inactive) | 1.89 µM (inactive) | 1.87 µM (inactive) | 1.58 µM (inactive) | 3.1 µM (inactive) | 1.9 µM (inactive) | 2.48 µM (inactive) | 1.83 µM (inactive) | 4.95 µM (inactive) | 2.28 µM (inactive) | 5.43 µM (inactive) | 2.34 µM (inactive) | 2.12 µM (inactive)
Nc1nc(SCC(=O)O)nc(O)c1N | 1.32 µM (inactive) | > 100 µM (inactive) | > 100 µM (inactive) | 35.6 µM (inactive) | > 100 µM (inactive) | > 100 µM (inactive) | 13.6 µM (inactive) | 20.9 µM (inactive) | 33.2 µM (inactive) | 37.6 µM (inactive) | > 100 µM (inactive) | > 100 µM (inactive) | > 100 µM (inactive) | 50.9 µM (inactive) | 32.7 µM (inactive) | > 100 µM (inactive) | > 100 µM (inactive) | > 100 µM (inactive) | 50.2 µM (inactive) | 70.5 µM (inactive)
O=C1OC[C@H]2[C@@H]1[C@H]1O[C@@H]2C2=C(CCC2)C1=O | > 100 µM (inactive) | > 100 µM (inactive) | > 100 µM (inactive) | > 100 µM (inactive) | > 100 µM (inactive) | > 100 µM (inactive) | > 100 µM (inactive) | > 100 µM (inactive) | > 100 µM (inactive) | 1.11 µM (active) | > 100 µM (inactive) | > 100 µM (inactive) | > 100 µM (inactive) | > 100 µM (inactive) | > 100 µM (inactive) | > 100 µM (inactive) | > 100 µM (inactive) | > 100 µM (inactive) | > 100 µM (inactive) | > 100 µM (inactive)
